Experimental data published in ChEMBL document CHEMBL2331425, “Triazolo and imidazo dihydropyrazolopyrimidine potassium channel antagonists” (Bioorg Med Chem Lett, 2013).

Tests used:
[1] = Clearance in Sprague-Dawley rat at 1 mg/kg, iv; assay type: ADME, organism-based; design: dose 1 mg/kg, route intravenous; details: in vivo
[2] = Half life in Sprague-Dawley rat at 1 mg/kg, iv; assay type: ADME, organism-based; design: dose 1 mg/kg, route intravenous; details: in vivo
[3] = biological target: T1, Potassium voltage-gated channel subfamily A member 5 (Homo sapiens, UniProt P22460); test: Antagonist activity at human Kv1.5 expressed in mouse L929 cells assessed as inhibition of delayed rectifier repolarization current by patch clamp assay; assay type: cell-based
T1 sequence (P22460 whole entry): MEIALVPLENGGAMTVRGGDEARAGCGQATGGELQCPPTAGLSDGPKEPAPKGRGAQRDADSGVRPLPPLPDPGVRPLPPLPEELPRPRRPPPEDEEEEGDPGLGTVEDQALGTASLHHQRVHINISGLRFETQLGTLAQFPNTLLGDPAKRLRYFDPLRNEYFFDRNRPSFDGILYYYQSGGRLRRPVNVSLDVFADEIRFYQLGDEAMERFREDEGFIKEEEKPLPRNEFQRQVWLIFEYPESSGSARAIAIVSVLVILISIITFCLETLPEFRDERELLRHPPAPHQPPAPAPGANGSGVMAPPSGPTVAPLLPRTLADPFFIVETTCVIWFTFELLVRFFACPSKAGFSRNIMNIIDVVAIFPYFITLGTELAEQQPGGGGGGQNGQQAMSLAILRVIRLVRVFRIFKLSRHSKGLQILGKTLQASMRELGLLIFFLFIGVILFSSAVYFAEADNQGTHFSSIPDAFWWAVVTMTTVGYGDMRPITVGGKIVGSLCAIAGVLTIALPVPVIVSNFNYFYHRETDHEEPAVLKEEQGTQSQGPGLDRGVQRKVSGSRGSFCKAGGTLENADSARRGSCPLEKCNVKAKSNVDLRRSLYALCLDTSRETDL

[4] = biological target: T1, Potassium voltage-gated channel subfamily A member 5; test: Antagonist activity at human Kv1.5 expressed in mouse L929 cells assessed as inhibition of delayed rectifier repolarization current at 0.3 uM by patch clamp assay relative to control; assay type: cell-based
[5] = biological target: T2, Nuclear receptor subfamily 1 group I member 2 (Homo sapiens, UniProt O75469); test: Transactivation of PXR (unknown origin)
T2 sequence (O75469 whole entry): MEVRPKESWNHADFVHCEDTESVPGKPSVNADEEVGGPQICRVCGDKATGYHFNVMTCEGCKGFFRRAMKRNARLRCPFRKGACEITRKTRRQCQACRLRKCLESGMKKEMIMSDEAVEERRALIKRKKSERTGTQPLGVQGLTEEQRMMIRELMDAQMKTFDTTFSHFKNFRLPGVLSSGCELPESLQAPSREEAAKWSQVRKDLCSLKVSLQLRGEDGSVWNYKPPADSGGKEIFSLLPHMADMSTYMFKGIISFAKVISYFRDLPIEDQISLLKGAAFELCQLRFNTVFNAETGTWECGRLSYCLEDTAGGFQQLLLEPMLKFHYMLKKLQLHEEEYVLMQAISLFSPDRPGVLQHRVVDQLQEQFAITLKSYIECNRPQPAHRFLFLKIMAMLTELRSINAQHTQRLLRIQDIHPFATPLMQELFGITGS

hERG (KCNH2) = hERG (KCNH2) (Homo sapiens, UniProt Q12809); test: Inhibition of human ERG current in HEK293 cells at 10 uM by patch clamp method relative to control; assay type: cell-based; details: HEK293 cells expressing human ERG
hERG (KCNH2), sequence (Q12809 whole entry): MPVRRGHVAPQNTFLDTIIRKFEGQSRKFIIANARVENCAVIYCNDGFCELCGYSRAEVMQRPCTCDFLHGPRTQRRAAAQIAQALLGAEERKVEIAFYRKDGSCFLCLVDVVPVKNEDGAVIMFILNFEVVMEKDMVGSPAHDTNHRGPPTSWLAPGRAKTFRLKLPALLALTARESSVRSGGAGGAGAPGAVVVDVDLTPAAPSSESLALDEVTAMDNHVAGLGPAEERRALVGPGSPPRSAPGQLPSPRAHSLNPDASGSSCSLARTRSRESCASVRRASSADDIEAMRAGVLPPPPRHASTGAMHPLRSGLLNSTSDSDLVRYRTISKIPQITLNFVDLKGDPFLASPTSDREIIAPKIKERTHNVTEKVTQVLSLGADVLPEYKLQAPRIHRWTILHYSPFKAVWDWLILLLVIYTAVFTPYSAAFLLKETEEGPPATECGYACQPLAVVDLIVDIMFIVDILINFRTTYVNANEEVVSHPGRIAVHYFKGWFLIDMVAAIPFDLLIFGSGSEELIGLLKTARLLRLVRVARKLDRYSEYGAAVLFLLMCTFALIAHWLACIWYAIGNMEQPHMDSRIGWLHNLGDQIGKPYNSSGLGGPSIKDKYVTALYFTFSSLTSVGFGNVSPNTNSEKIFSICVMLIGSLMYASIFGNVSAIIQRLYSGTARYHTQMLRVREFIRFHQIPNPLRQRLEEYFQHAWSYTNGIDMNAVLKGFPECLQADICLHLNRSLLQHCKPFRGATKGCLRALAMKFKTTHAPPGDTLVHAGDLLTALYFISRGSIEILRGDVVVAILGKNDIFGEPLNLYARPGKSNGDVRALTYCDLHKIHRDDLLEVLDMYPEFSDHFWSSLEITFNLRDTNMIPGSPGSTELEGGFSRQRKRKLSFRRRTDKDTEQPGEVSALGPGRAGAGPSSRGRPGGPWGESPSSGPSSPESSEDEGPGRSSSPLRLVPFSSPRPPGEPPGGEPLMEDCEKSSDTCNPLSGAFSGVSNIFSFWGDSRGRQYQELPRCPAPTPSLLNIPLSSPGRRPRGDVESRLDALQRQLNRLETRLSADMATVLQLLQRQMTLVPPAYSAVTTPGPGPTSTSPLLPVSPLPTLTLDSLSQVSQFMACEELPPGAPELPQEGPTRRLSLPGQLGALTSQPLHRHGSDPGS

[6] = biological target: Voltage-gated inwardly rectifying potassium channel KCNH2 (Homo sapiens, UniProt Q12809); test: Inhibition of human ERG current in HEK293 cells by patch clamp method; assay type: cell-based
Voltage-gated inwardly rectifying potassium channel KCNH2, sequence (Q12809 whole entry): as above

| SMILES | IC50 [3] [µM] | further results |
| --- | --- | --- |
| CC1=C(C(=O)N2CCN(c3ccc(F)cc3)CC2)[C@@H](c2ccc(Cl)c(Cl)c2)n2nccc2N1 |  | clearance [1]: 134 mL/min/kg; half-life [2]: 36 min |
| CC1=C(c2ncnn2-c2ccc(C)cn2)[C@@H](c2ccc(Cl)c(Cl)c2)n2nc(C(F)(F)F)cc2N1 | 0.389 |  |
| COc1ccc(-n2cnc(C3=C(C)Nc4cc(C)nn4[C@@H]3c3ccc(Cl)c(Cl)c3)n2)cc1 |  | inhibition [4]: 5% |
| CC1=C(c2ncnn2C2CCC2)[C@@H](c2ccc(Cl)c(Cl)c2)n2nccc2N1 | 0.048 |  |
| CCCn1ncnc1C1=C(C)Nc2ccnn2[C@@H]1c1ccc(Cl)c(Cl)c1 | 0.102 |  |
| CC1=C(c2ncnn2C2CCC2)[C@@H](c2ccc(Cl)c(Cl)c2)n2nc(C(F)(F)F)cc2N1 | 0.165 |  |
| CC1=C(c2ncnn2-c2ccccc2F)[C@@H](c2ccc(Cl)c(Cl)c2)n2nccc2N1 | 0.074 |  |
| CC1=C(c2ncnn2-c2cc(C)ccn2)[C@@H](c2ccc(Cl)c(Cl)c2)n2nc(C(F)(F)F)cc2N1 | 0.41 | EC20 [5]: 0.44 µM |
| COc1cccc(-n2cnc(C3=C(C)Nc4cc(C)nn4[C@@H]3c3ccc(Cl)c(Cl)c3)n2)c1 |  | inhibition [4]: 14% |
| CCOc1cccc(-n2ncnc2C2=C(C)Nc3cc(C(F)(F)F)nn3[C@@H]2c2ccc(Cl)c(Cl)c2)n1 | 0.223 | EC20 [5]: 1.1 µM |
| CC1=C(c2ncnn2CC(F)(F)F)[C@@H](c2ccc(Cl)c(Cl)c2)n2nccc2N1 | 0.2 |  |
| CC1=C(c2ncnn2-c2ccccn2)[C@@H](c2ccc(Cl)c(Cl)c2)n2nc(C(F)(F)F)cc2N1 |  | inhibition [4]: 11% |
| CCn1ncnc1C1=C(C)Nc2ccnn2[C@@H]1c1ccc(Cl)c(Cl)c1 | 0.191 |  |
| COc1ccccc1-n1ncnc1C1=C(C)Nc2ccnn2[C@@H]1c1ccc(Cl)c(Cl)c1 | 0.116 |  |
| CC1=C(c2ncnn2C2CCCCC2)[C@@H](c2ccc(Cl)c(Cl)c2)n2nc(C)cc2N1 | 0.127 |  |
| CC1=C(c2ncnn2-c2cccc(F)c2)[C@@H](c2ccc(Cl)c(Cl)c2)n2nccc2N1 | 0.097 |  |
| CC1=C(c2ncnn2-c2cccc(Cl)n2)[C@@H](c2ccc(Cl)c(Cl)c2)n2nc(C(F)(F)F)cc2N1 | 0.19 |  |
| CC1=C(c2ncnn2C2CCC2)[C@@H](c2ccc(Cl)c(Cl)c2)n2nc(C)cc2N1 | 0.094 | clearance [1]: 101 mL/min/kg; half-life [2]: 36 min; inhibition at 10 µM (hERG (KCNH2)): 40% |
| CC1=C(c2ncnn2-c2ccc(C)cc2)[C@@H](c2ccc(Cl)c(Cl)c2)n2nc(C)cc2N1 |  | inhibition [4]: 25% |
| CC1=C(c2ncnn2C2CCCC2)[C@@H](c2ccc(Cl)c(Cl)c2)n2nccc2N1 | 0.037 | INH [6]: 6 µM |
| CC1=C(c2ncnn2C(C)(C)C)[C@@H](c2ccc(Cl)c(Cl)c2)n2nccc2N1 | 0.223 |  |
| CC1=C(c2ncn[nH]2)[C@@H](c2ccc(Cl)c(Cl)c2)n2nccc2N1 |  | inhibition [4]: 8% |
| CC1=C(c2ncnn2C(C)C)[C@@H](c2ccc(Cl)c(Cl)c2)n2nccc2N1 | 0.089 | inhibition at 10 µM (hERG (KCNH2)): 26% |
